Assay [1] has as its system E. cloacae species complex. As to the kind of experiment: microbe, parasite or virus in culture. In kind it is cell-based, Enterobacter cloacae. The conditions noted are these: for MIC50 fold change: Enterobacter spp. (5 isolates).
Assay [2] concerns Acinetobacter baumannii-calcoaceticus complex. The assay can be described thus: microbe, parasite or virus in culture. Format: cell-based. To be noted: for MIC50 fold change: Acinetobacter spp. (5 isolates).
The subject of a further assay is Escherichia coli. The assay can be described thus: microbe, parasite or virus in culture. Format: cell-based. The conditions noted are these: for MIC50 fold change: Escherichia coli (5 isolates).
In a further assay the test system is Klebsiella pneumoniae. The conditions noted are these: for MIC50 fold change: Klebsiella pneumoniae (5 isolates).
In a further assay the test system is Enterococcus faecalis. As to the kind of experiment: microbe, parasite or virus in culture. Format: cell-based. To be noted: for MIC50 fold change: Enterococcus faecalis (2 isolates).
For a further assay, the system named is Pseudomonas aeruginosa. As to the kind of experiment: microbe, parasite or virus in culture. In kind it is cell-based. To be noted: for MIC50 fold change: Pseudomonas aeruginosa (5 isolates).
The subject of the next assay is Enterococcus faecium. As to the kind of experiment: microbe, parasite or virus in culture. In kind it is cell-based. The conditions noted are these: for MIC50 fold change: Enterococcus faecium (3 isolates).
Another assay deals with Streptococcus pneumoniae. The assay can be described thus: microbe, parasite or virus in culture. Format: cell-based. The conditions noted are these: for MIC50 fold change: Streptococcus pneumoniae (5 isolates).
A further assay has as its system Staphylococcus aureus. The assay can be described thus: microbe, parasite or virus in culture. To be noted: for MIC50 fold change: relative to P194-acetate, Staphylococcus aureus (5 isolates). In kind it is cell-based.

Values after ≈ are worked out from the molar mass of the structure shown. Like-named read-outs stand apart in the source and are kept apart here. Where a SMILES comes first, the peptide text is derived from it. [ ]: non-standard residue; d: D form.

Turning to RAVRCTCI [Peptide D8-T2A], the MIC50 fold change in [1] (relative to D8-acetate) was 1; in assay [2] (relative to D8-acetate), 2; against Escherichia coli (relative to D8-acetate), 2; against Klebsiella pneumoniae (relative to D8-acetate), 2; against Enterococcus faecalis (relative to D8-acetate), 2; against Pseudomonas aeruginosa (relative to D8-acetate), greater than 2. In addition, the MIC50 fold change against Enterococcus faecium (relative to D8-acetate) is listed as 2.
As for RTVACTCI [Peptide D8-R4A], the MIC50 fold change is greater than 4 in assay [1] (relative to D8-acetate); greater than 32 in [2] (relative to D8-acetate); greater than 16 with Escherichia coli (relative to D8-acetate); greater than 8 against Klebsiella pneumoniae (relative to D8-acetate); greater than 4 with Enterococcus faecalis (relative to D8-acetate); greater than 2 against Pseudomonas aeruginosa (relative to D8-acetate). Besides, the MIC50 fold change against Enterococcus faecium (relative to D8-acetate) amounted to 8.
As for RTVRCACI [Peptide D8-T6A], the MIC50 fold change in assay [1] (relative to D8-acetate) is reported as 0.5; in [2] (relative to D8-acetate), 2; against Escherichia coli (relative to D8-acetate), 1; with Klebsiella pneumoniae (relative to D8-acetate) it was 2; with Enterococcus faecalis (relative to D8-acetate) it was 1; against Pseudomonas aeruginosa (relative to D8-acetate), 2. Further, the MIC50 fold change against Streptococcus pneumoniae (relative to D8-acetate) and against Enterococcus faecium (relative to D8-acetate) was 1 in each case.
For the compound RTVRCTAI [Peptide D8-C7A], the MIC50 fold change is greater than 4 in [1] (relative to D8-acetate); greater than 32 in [2] (relative to D8-acetate); greater than 16 against Escherichia coli (relative to D8-acetate); greater than 8 with Klebsiella pneumoniae (relative to D8-acetate); greater than 4 in the assay with Enterococcus faecalis (relative to D8-acetate); greater than 2 in the assay on Pseudomonas aeruginosa (relative to D8-acetate). Further, in the assay on Enterococcus faecium (relative to D8-acetate), the MIC50 fold change amounted to 16.
As to `CC[C@@H](C)[C@@H](NC(=O)[C@@H](CS)NC(=O)[C@@H](CCSC)NC(=O)[C@@H](CS)NC(=O)[C@@H](CCCNC(=N)N)NC(=O)[C@H](NC(=O)[C@H](NC(=O)[C@H](N)CCCNC(=N)N)[C@H](C)O)C(C)C)C(=O)O` [P182 F, RTVRCMCI] (H-[dR][dT][dV][dR][dC][dM][dC][dI]-OH; N-terminus and C-terminus assumed), the MIC in assay [2] (-calcoaceticus complex) was 16 µg/mL (≈ 16.3 µM); with Enterococcus faecalis, 8 µg/mL (≈ 8.15 µM); against Streptococcus pneumoniae, 32 µg/mL (≈ 32.6 µM); in the assay with Enterococcus faecium it was 8 µg/mL (≈ 8.15 µM).
Take RTVRCTCA [Peptide D8-I8A]: the MIC50 fold change was 1 in assay [1] (relative to D8-acetate); 2 in assay [2] (relative to D8-acetate); 4 in the assay with Escherichia coli (relative to D8-acetate); 4 in the assay with Klebsiella pneumoniae (relative to D8-acetate); 4 with Enterococcus faecalis (relative to D8-acetate); 2 in the assay with Pseudomonas aeruginosa (relative to D8-acetate). Moreover, the MIC50 fold change in the assay with Enterococcus faecium (relative to D8-acetate) is listed as 4.
RTVRATCI [Peptide D8-C5A]: the MIC50 fold change was greater than 4 in assay [1] (relative to D8-acetate); greater than 32 in [2] (relative to D8-acetate); greater than 16 in the assay on Escherichia coli (relative to D8-acetate); greater than 8 against Klebsiella pneumoniae (relative to D8-acetate); greater than 4 with Enterococcus faecalis (relative to D8-acetate); greater than 2 in the assay with Pseudomonas aeruginosa (relative to D8-acetate). In addition, in the assay on Enterococcus faecium (relative to D8-acetate), the MIC50 fold change was greater than 16.
On to `CC[C@@H](C)[C@@H](NC(=O)[C@@H](CS)NC(=O)[C@@H](CCCNC(=N)N)NC(=O)[C@@H](CS)NC(=O)[C@@H](CCCNC(=N)N)NC(=O)[C@H](NC(=O)[C@@H](Cc1ccc(O)cc1)NC(=O)[C@H](N)CCCNC(=N)N)C(C)C)C(=O)O` [P194 A, RYVRCRCI] (H-[dR][dY][dV][dR][dC][dR][dC][dI]-OH; N-terminus and C-terminus assumed), for which the MIC50 in assay [1] (species complex) was 16 µg/mL (≈ 15 µM); in assay [2] (-calcoaceticus complex) it was 4 µg/mL (≈ 3.74 µM); with Escherichia coli, 8 µg/mL (≈ 7.49 µM); in the assay on Staphylococcus aureus, 32 µg/mL (≈ 30 µM); against Klebsiella pneumoniae, 4 µg/mL (≈ 3.74 µM); against Enterococcus faecalis, 2 µg/mL (≈ 1.87 µM). Also, the MIC50 in the assay with Pseudomonas aeruginosa amounted to 32 µg/mL (≈ 30 µM); against Streptococcus pneumoniae, 32 µg/mL (≈ 30 µM); against Enterococcus faecium, 1 µg/mL (≈ 0.936 µM). Besides, the values for the MIC with Staphylococcus aureus, with Enterococcus faecalis and against Enterococcus faecium were 32 µg/mL (≈ 30 µM), 4 µg/mL (≈ 3.74 µM) and 2 µg/mL (≈ 1.87 µM), respectively.
With ATVRCTCI [Peptide D8-R1A], the MIC50 fold change in assay [1] (relative to D8-acetate) is 2; in assay [2] (relative to D8-acetate), 4; with Escherichia coli (relative to D8-acetate), 4; against Klebsiella pneumoniae (relative to D8-acetate), 4; in the assay on Enterococcus faecalis (relative to D8-acetate), 2; against Pseudomonas aeruginosa (relative to D8-acetate), 2. Besides, in the assay with Enterococcus faecium (relative to D8-acetate), the MIC50 fold change amounted to 2.
RAVRCRCI [Peptide P194-T2A]: the MIC50 fold change was 0.5 in assay [1] (relative to P194-acetate); 0.5 in assay [2] (relative to P194-acetate); 0.5 against Escherichia coli (relative to P194-acetate); 2 in the assay with Staphylococcus aureus; 2 against Klebsiella pneumoniae (relative to P194-acetate); 4 against Enterococcus faecalis (relative to P194-acetate). Also, the MIC50 fold change with Pseudomonas aeruginosa (relative to P194-acetate) is greater than 2; against Streptococcus pneumoniae (relative to P194-acetate), 2; in the assay on Enterococcus faecium (relative to P194-acetate) it was 2.
Consider `CC[C@@H](C)[C@@H](NC(=O)[C@@H](CS)NC(=O)[C@@H](CCSC)NC(=O)[C@@H](CS)NC(=O)[C@@H](CCCNC(=N)N)NC(=O)[C@H](NC(=O)[C@H](NC(=O)[C@H](N)CCCNC(=N)N)[C@H](C)O)C(C)C)C(=O)O` [P182 A, RTVRCMCI] (H-[dR][dT][dV][dR][dC][dM][dC][dI]-OH; N-terminus and C-terminus assumed), for which the MIC is 16 µg/mL (≈ 16.3 µM) in assay [2] (-calcoaceticus complex); 16 µg/mL (≈ 16.3 µM) against Escherichia coli; 8 µg/mL (≈ 8.15 µM) in the assay on Enterococcus faecalis; 32 µg/mL (≈ 32.6 µM) in the assay with Streptococcus pneumoniae; 8 µg/mL (≈ 8.15 µM) against Enterococcus faecium.
On to RTARCTCI [Peptide D8-V3A], for which the MIC50 fold change in [1] (relative to D8-acetate) is greater than 4; in [2] (relative to D8-acetate) it was 32; with Escherichia coli (relative to D8-acetate), 16; against Klebsiella pneumoniae (relative to D8-acetate), greater than 8; against Enterococcus faecalis (relative to D8-acetate) it was greater than 4; with Pseudomonas aeruginosa (relative to D8-acetate), greater than 2. For the same compound, in the assay with Enterococcus faecium (relative to D8-acetate), the MIC50 fold change stood at 8.
With AYVRCRCI [Peptide P194-R1A], the MIC50 fold change in assay [1] (relative to P194-acetate) is on record as 0.5; in assay [2] (relative to P194-acetate), 1; against Escherichia coli (relative to P194-acetate) it was 0.5; in the assay with Staphylococcus aureus, 0.5; with Klebsiella pneumoniae (relative to P194-acetate), 1; against Enterococcus faecalis (relative to P194-acetate), 1. Besides, the figures for the MIC50 fold change against Pseudomonas aeruginosa (relative to P194-acetate), against Streptococcus pneumoniae (relative to P194-acetate) and in the assay with Enterococcus faecium (relative to P194-acetate) were 1, 1 and 2, respectively.
On to `CC[C@@H](C)[C@@H](NC(=O)[C@@H](CS)NC(=O)[C@@H](CCCNC(=N)N)NC(=O)[C@@H](CS)NC(=O)[C@@H](CCCNC(=N)N)NC(=O)[C@H](NC(=O)[C@@H](Cc1ccc(O)cc1)NC(=O)[C@H](N)CCCNC(=N)N)C(C)C)C(=O)O` [P194 F, RYVRCRCI] (H-[dR][dY][dV][dR][dC][dR][dC][dI]-OH; N-terminus and C-terminus assumed), for which the MIC was determined as 8 µg/mL (≈ 7.49 µM) against Enterococcus faecalis, 32 µg/mL (≈ 30 µM) against Streptococcus pneumoniae and 4 µg/mL (≈ 3.74 µM) against Enterococcus faecium.

The values above are taken from US20260078158A1, “COMPOSITIONS COMPRISING CXCL10-DERIVED PEPTIDES AND METHODS OF USE THEREOF” (priority 2022, published 2026).
